Source: article PMC6523814, “Small-Molecule Host-Defense Peptide Mimetic Antibacterial and Antifungal Agents Activate Human and Mouse Mast Cells via Mas-Related GPCRs” (Cells, 2019)
Values after ≈ are worked out from the molar mass of the structure shown.

How the values were obtained:
[1] = system: methicillin-resistant S. aureus (MRSA); parameters: method as in PMID 26501484; settings: cited from earlier work
[2] = system: Aspergillus fumigatus (ATCC MYA-3626); assay: Fungus MIC assay (CLSI M38-A2); format: cell-based; settings: RPMI/MOPS pH 7.0, 35 °C, 48 h; for MIC: Aspergillus fumigatus
Protocol: (§1) Fungal strains included a clinical isolate of Candida albicans (ATCC GDH2346), Aspergillus fumigatus (ATCC MYA-3626), and Aspergillus flavus (ATCC 204304). Minimum inhibitory concentration (MIC) assays were carried out in 96-well plates using the Clinical and Laboratory Standards Institute (CLSI) method C27-A3 for C. albicans and M38-A2 for Aspergillus species. smHDPMs, each in stock solutions of 10 mM in DMSO, were diluted in 50 µL RPMI/MOPS pH 7.0 in a 96-well plate and 50 µL of diluted yeast were added to each well. […] The plate was then incubated at 35 °C for 48 h. […] All MIC assays were performed in duplicate.

[3] = system: Aspergillus flavus (ATCC 204304); assay: Fungus MIC assay (CLSI M38-A2); format: cell-based; settings: RPMI/MOPS pH 7.0, 35 °C, 48 h; for MIC: Aspergillus flavus, ATCC204304
Protocol: as §1

[4] = system: human transformed liver HepG2 cells (ATCC HB-8065); assay: Cytotoxicity, MTS viability assay; format: cell-based
Protocol: (§2) Cytotoxicity (50% […] concentration, CC50) was determined against mouse 3T3 fibroblasts (ATCC CRL-1658) and human transformed liver HepG2 cells (ATCC HB-8065) using an MTS viability assay according to the manufacturer’s protocol (Promega CellTiter 96 aqueous nonradioactive cell proliferation assay). Briefly, 3T3 cells were seeded at 2 × 10^4 cells/well in Dulbecco’s modified Eagle’s medium (DMEM) supplemented with 10% bovine calf serum and HepG2 cells were seeded at 3 × 10^4 cells/well in MEM supplemented with 10% fetal bovine serum. After 24 h of growth, the culture medium was replaced with medium lacking serum, and eight two-folds dilutions of each of the five compounds were added. […] Following incubation for 1 h at 37 °C, compound solutions were removed and medium containing serum was replenished. Viability was determined by addition of the tetrazolium compound, MTS, and the electron coupling agent, PMS, and then incubation at 37 °C for 2 h (3T3 cells) or 3 h (HepG2 cells) followed by absorbance measurements at 490 nm. The CC50 was calculated using GraphPad Prism software (nonlinear fit).

[5] = Cytotoxicity, MTS viability assay; format: cell-based, human; settings: human, HepG2 cells (ATCC HB-8065); 1 h exposure in serum-free medium, MTS
Protocol: as §2

[6] = Cytotoxicity, MTS viability assay; format: cell-based, mouse; settings: mouse, 3T3 fibroblasts (ATCC CRL-1658); 1 h exposure in serum-free medium, MTS
Protocol: as §2

[7] = system: mouse 3T3 fibroblasts (ATCC CRL-1658); assay: Cytotoxicity, MTS viability assay; format: cell-based; settings: for fold less cytotoxic than Compound 2: CC50 in 3T3 and HepG2 cells relative to Compound 2
Protocol: as §2

[8] = target: T1, MRGPRX2 (Homo sapiens, UniProt Q96LB1); assay: Degranulation (β-hexosaminidase release) in RBL-2H3 cells expressing MRGPRX2; format: cell-based; settings: for EC50: RBL-2H3 cells stably expressing MRGPRX2, 30 min; for percentage degranulation (β-hexosaminidase release): 3 µM, 30 min, RBL-2H3 cells stably expressing MRGPRX2
T1 construct: HA (hemagglutinin)
T1 sequence (Q96LB1 1-330): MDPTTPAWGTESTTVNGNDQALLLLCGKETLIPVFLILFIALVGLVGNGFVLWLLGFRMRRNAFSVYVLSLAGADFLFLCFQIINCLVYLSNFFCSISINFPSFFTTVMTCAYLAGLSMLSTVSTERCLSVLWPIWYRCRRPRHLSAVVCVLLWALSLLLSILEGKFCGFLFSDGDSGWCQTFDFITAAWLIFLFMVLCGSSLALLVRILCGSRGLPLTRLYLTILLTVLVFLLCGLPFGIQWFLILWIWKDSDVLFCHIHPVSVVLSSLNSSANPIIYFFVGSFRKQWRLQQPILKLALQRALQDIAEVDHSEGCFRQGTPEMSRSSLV
Protocol: The human mast cell line, LAD2, was maintained in complete StemPro-34 medium supplemented with L-glutamine (2 mM), penicillin (100 IU/mL), streptomycin (100 μg/mL), and 100 ng/mL recombinant human stem cell factor (rhSCF). Hemidepletions were performed weekly with media containing rhSCF (100 ng/mL). Rat basophilic leukemia (RBL-2H3) cells were maintained as monolayer cultures in DMEM supplemented with 10% FBS, L-glutamine (2 mM), penicillin (100 IU/mL), and streptomycin (100 μg/mL). Peritoneal mast cells (PMCs) were obtained from 6–8 weeks old C57BL/6 and Mrgprb2^-/- (C57BL/6 background) mice using i.p. injection of 8 mL MC disassociation medium that was made of HBSS with 3% FCS and 10 mM HEPES. The cells were cultured in Iscove’s Modified Dulbecco’s Medium (IMDM) supplemented with 10% FCS, murine IL-3 (10 ng/mL), and murine SCF (30 ng/mL). After 48 h, the medium and the suspended cells were removed and replaced with fresh medium containing murine IL-3 (10 ng/mL) and murine SCF (30 ng/mL). The floating cells were then used for the experiment within 2–3 weeks. Bone-marrow-derived mast cells (BMMCs) were harvested by flushing bone marrow cells from the femurs of C57BL/6 mice and culturing the cells for 4–8 weeks in IMDM supplemented with 10% FCS, murine IL-3 (10 ng/mL). The cells were then used within 4–8 weeks.
Cells (2 ×10^6) were transfected with plasmids (2 µg/µL) encoding MRGPRX2 or MRGPRX2 missense mutants using the Amaxa kit V using Amaxa Nucleofector device according to the manufacturer’s protocol. For stable transfection, cells were cultured in the presence of G-418 (1 mg/mL) and used within one month of transfection. For transient transfection, cells were used within 16–20 h after transfection. To detect MRGPRX2 expression, cells (1 × 10^6) were incubated with the PE-conjugated anti-MRGPRX2 antibody, washed in FACS buffer, fixed, and analyzed on a BD LSR II flow cytometer.
RBL-2H3 cells (5 × 10^4), LAD2 cells (10 × 10^4), and PMCs (5 × 10^3), BMMCs (5 × 10^4), were seeded into 96-well plates in a total volume of 50 μl HEPES buffer containing 0.1% bovine serum albumin (BSA) and exposed to ligands for 30 min. Cells without treatment were designated as control. In some experiments, cells were treated with Pertussis toxin (PTx). For total β-hexosaminidase release, unstimulated cells were lysed in 50 μl of 0.1% Triton X-100. Aliquots (20 μl) of supernatants or cell lysates were incubated with 20 μl of 1 mM p-nitrophenyl-N-acetyl-β- D-glucosamine for 1 h at 37 °C. The reaction was stopped by adding 250 μl of a 0.1 M Na2CO3/0.1 M NaHCO3 buffer and absorbance was measured at 405 nm.

[9] = system: Candida albicans (ATCC GDH2346); assay: Fungus MIC assay (CLSI C27-A3); format: cell-based; settings: RPMI/MOPS pH 7.0, 35 °C, 48 h; for MIC: Candida albicans
Protocol: as §1

[10] = system: Enterococcus faecalis [ATCC 29212]; assay: Bacterial MIC assay (Hancock modified broth assay); format: cell-based; settings: ATCC29212, cation-adjusted Mueller–Hinton, 18 h
Protocol: (§3) were tested for antibacterial activities against three Gram-negative bacteria (Escherichia coli [ATCC 25922], Pseudomonas aeruginosa [ATCC 10145], and Klebsiella pneumonia [ATCC 13883]) and two Gram-positive bacteria (Staphylococcus aureus [ATCC 27660] and Enterococcus faecalis [ATCC 29212]) using the Hancock modified broth assay. Three milliliters cation-adjusted Mueller-Hinton medium was inoculated with 20 μL of frozen bacterial stock and incubated at 37 °C on a shaker platform (250 rpm) overnight. […] All samples were done in duplicate. One set of control wells included broth-only samples with dilution buffer for testing sterility and providing blank values for the assay readings. Vehicle-control wells containing the bacterial suspension with DMSO (no compound) were also included. Following the overnight incubation (18 h), the cell growth was assessed by observing the presence of “acceptable growth”, defined by CLSI as a ≥2 mm button or definite turbidity. MIC was defined as the lowest concentration where acceptable growth is not observed.

[11] = system: Staphylococcus aureus [ATCC 27660]; assay: Bacterial MIC assay (Hancock modified broth assay); format: cell-based; settings: cation-adjusted Mueller–Hinton, 18 h; for MIC: Staphylococcus aureus, ATCC27660
Protocol: as §3

[12] = system: Klebsiella pneumonia [ATCC 13883]; assay: Bacterial MIC assay (Hancock modified broth assay); format: cell-based; settings: Klebsiella pneumoniae, ATCC13883; cation-adjusted Mueller–Hinton, 18 h
Protocol: as §3

[13] = system: Escherichia coli [ATCC 25922]; assay: Bacterial MIC assay (Hancock modified broth assay); format: cell-based; settings: cation-adjusted Mueller–Hinton, 18 h; for MIC: Escherichia coli, ATCC25922
Protocol: as §3

[14] = system: Pseudomonas aeruginosa [ATCC 10145]; assay: Bacterial MIC assay (Hancock modified broth assay); format: cell-based; settings: ATCC10145, cation-adjusted Mueller–Hinton, 18 h
Protocol: as §3

| SMILES | MIC [2] [µg/mL] | MIC A. fumigatus [2] [µg/mL] | MIC [3] [µg/mL] | cytotoxic effects on HepG2 cells at concentrations relevant for antifungal activity [4] | CC50 at 1 h [5] [µM] | CC50 at 1 h [6] [µM] | cytotoxic effects on 3T3 cells at concentrations relevant for antifungal activity [7] | EC50 [8] [µM] | MIC [9] [µg/mL] | MIC A. flavus [3] [µg/mL] | MIC [10] [µg/mL] | MIC [11] [µg/mL] | MIC [12] [µg/mL] | MIC [13] [µg/mL] | MIC [14] [µg/mL] | MIC C. albicans [9] [µg/mL] | fold less cytotoxic than Compound 2 [7] | percentage degranulation (β-hexosaminidase release) [8] | other results |
| --- | --- | --- | --- | --- | --- | --- | --- | --- | --- | --- | --- | --- | --- | --- | --- | --- | --- | --- | --- |
| N=C(N)NCCCCC(=O)Nc1cc(C(F)(F)F)cc(NC(=O)c2cc(C(=O)Nc3cc(C(F)(F)F)cc(NC(=O)CCCCNC(=N)N)c3O[C@@H]3CCNC3)ncn2)c1O[C@@H]1CCNC1 [Brilacidin] | – | – | – | – | – | – | – | – | – | – | – | – | – | – | – | – | – | – | efficacy in rabbit model of MRSA-induced keratitis [1]: displays efficacy |
| Cc1cc(C#CCNC(=N)N)ccc1-c1nnc(-c2ccc(C#CCNC(=N)N)cc2)o1 [Compound 1] | 12.5 to 50 (≈ 29.3 to 117 µM) | 12.5 to 50 | 6.25 (≈ 14.7 µM) | little to no cytotoxic effects | 257 | 209 | little to no cytotoxic effects | 0.8 | 0.78 to 1.56 (≈ 1.83 to 3.66 µM) | – | – | – | – | – | – | – | – | – | – |
| N=C(N)N1CC=C(c2ccc(-c3nnc(-c4ccc(C5=CCN(C(=N)N)CC5)cc4)o3)cc2)CC1 [Compound 2] | 0.39 (≈ 0.832 µM) | 0.39 (≈ 0.832 µM) | 0.39 (≈ 0.832 µM) | little to no cytotoxic effects | 151 | 124 | little to no cytotoxic effects | 3 | 0.39 (≈ 0.832 µM) | 0.39 (≈ 0.832 µM) | > 100 | 0.1 (≈ 0.213 µM) | > 100 | 3.1 (≈ 6.62 µM) | > 100 | 0.39 (≈ 0.832 µM) | – | – | Bacterial MIC Staphylococcus aureus [11]: 0.1 µg/mL; Bacterial MIC Escherichia coli [13]: 3.1 µg/mL |
| C1=C(c2ccc(-c3cn(-c4ccc(C5=CCNCC5)cc4)nn3)cc2)CCNC1 [Compound 3] | > 100 | > 100 | > 100 | – | 111 | 60 | – | 1.8 | > 100 | > 100 | – | – | – | – | – | > 100 | – | – | – |
| Cc1c(-c2ccc(N3CCNCC3)cc2)ncnc1-c1ccc(N2CCNCC2)cc1 [Compound 4] | > 100 | – | > 100 | – | > 1560 | 883 | – | 0.4 | > 100 | – | > 100 | > 100 | > 100 | > 100 | > 100 | – | 2–10 fold | 20–25% | – |
| c1cc(-c2ccc(N3CCNCC3)cc2)cc(-c2ccc(N3CCNCC3)cc2)n1 [Compound 5] | > 100 | – | > 100 | – | 447 | 200 | – | 0.38 | > 100 | – | > 100 | > 100 | > 100 | > 100 | > 100 | – | 2–10 fold | 20–25% | – |
